Like-named read-outs stand apart in the source and are kept apart here.
Assays:
[1] = test system: baker's yeast (Saccharomyces cerevisiae); format: cell-based; conditions: for Glucose consumption rates and amounts of ethanol produced: FIGS. 1 and 2
Procedure: The pH of the sugarcane bagass and spruce hydrolysates were adjusted to 5.5 with a 5 M solution of sodium hydroxide. The conditioning of each hydrolysate was performed in eight 100-mL glass vessels equipped with magnetic stirrer bars. 26 mL hydrolysate was added to all vessels, and the vessels were placed on a magnetic stirrer plate (IKA-Werke, Staufen, Germany). Sodium dithionite (chemical grade; >87%, Merck, Darmstadt, Germany) was added to hydrolysates in the concentrations 5 and 10 mM. Additions of sodium sulphite to 5 and 10 mM were also performed. The additions were made at room temperature (23° C.) and the samples were kept for 10 min with stirring. The experiments were performed in duplicates.
The efficiency of the additions of the reducing agents was compared with alkali detoxification.
Ethanol measurements were performed by using an enzymatic kit (Ethanol UV-method, Boehringer Mannheim GmbH, Mannheim, Germany). Fermentation experiments were performed to evaluate the effectiveness of the additions and treatments. For comparison, untreated hydrolysates were included in the fermentation experiments as well as reference fermentations of sugar-based medium with an amount of fermentable sugars (i.e. glucose and mannose) corresponding to that in the hydrolysate samples. The fermentations were carried out using baker's yeast (Saccharomyces cerevisiae) (Jästbolaget AB, Rotebro, Sweden). The yeast inoculum was prepared in 750-mL cotton-plugged shake flasks with 300 mL YEPD medium ([…], 2% D-glucose). The flasks were inoculated and incubated with agitation at 30° C. for approximately 12 h. The cells were harvested in the late exponential growth phase by centrifugation (Hermla Z206A, Hermle Labortechnik GmbH, Wehingen, Germany) at 1,500 g for 5 min. The cells were resuspended in an appropriate amount of sterile water to achieve an inoculum consisting of 2.0 g/L (cell dry weight) in all fermentation vessels. The fermentation was carried out in 14 25-mL glass flasks equipped with magnets for stirring and sealed with rubber plugs pierced with cannulas for letting out carbon dioxide. The hydrolysate samples (23.75 mL), or alternatively the sugar solution for reference fermentations, were added to the fermentation flasks along with 0.5 mL of a nutrient solution (150 g/L yeast extract, 75 g/L (NH4)2HPO4, 3.75 g/L MgSO4.7 H2O, 238.2 g/L NaH2PO4.H2O), and 0.75 mL of yeast inoculum. The flasks were incubated at 30° C. in a water bath with magnetic stirring (IKA-Werke). Samples for measurement of sugars and ethanol were withdrawn during the fermentation. The glucose levels during the fermentation were estimated by using a glucometer (Glucometer Elite XL, Bayer AG, Leverkusen, Germany).

[2] = test system: yeast Saccharomyces cerevisiae; assay: Fermentation of sugar solution with model inhibitor coniferyl aldehyde; conditions: for viability at 10000 µM: Saccharomyces cerevisiae, read-out: Viable cells
Procedure: A sugar solution (glucose 18 g/L, mannose 14 g/L) with a coniferyl aldehyde concentration of 2.5 mM was prepared. Half of the solution was treated with 10 mM of sodium dithionite and the rest of the solution was left untreated as a reference. Fermentation was performed with the yeast Saccharomyces cerevisiae as described in the previous Examples.

[3] = test system: yeast Saccharomyces cerevisiae; assay: Simultaneous saccharification and fermentation (SSF) of spruce slurry; format: cell-based; conditions: for Ethanol concentration: after 70 hours
Procedure: Addition of sodium dithionite and sodium sulphite was tested in an SSF process. Spruce was pretreated as described in Example 1 above. The spruce slurry was adjusted to pH 5.4 with a 5 M solution of sodium hydroxide. Ten 250-mL shake flasks equipped with magnetic stirrer bars were filled with 100 g of spruce slurry. Sodium dithionite or sodium sulphite was added to the slurries to final concentrations of 7.5 and 10 mM. The additions were performed at room temperature (23° C.) for 10 min with stirring. Duplicate experiments were made. Cellulase and cellobiase preparations were prepared and added to the slurry using the enzyme activity loadings as described in Example 1 above. Further, the yeast inoculum was prepared according to Example 1 above. Inoculums were added to give a start concentration of 2.0 g/L (cell dry weight) in every flask. No source of extra nutrients was added. For comparison, two flasks with spruce slurry to which no reducing agents had been added were included in the experiment. The flasks were incubated at 35° C. for 69 h in a water bath with magnetic stirring. The flasks were sealed with Parafilm (Pechiney Plastic Packaging Company, Chicago, Ill., USA) to prevent evaporation of ethanol. Samples were withdrawn for analysis of ethanol according to Example 1 above.
A spruce slurry was prepared according to Examples 1 and 2 above. Different flasks were filled with 100 g each of the spruce slurry and were subjected to a SSF process according to Example 2 above, but with different amounts of dithionite and sulphite added. The produced ethanol was monitored during the fermentation. […]

[4] = test system: yeast Saccharomyces cerevisiae; assay: Simultaneous saccharification and fermentation (SSF) of sugarcane bagass slurry; format: cell-based; conditions: 7.5 and 10 mM, FIG. 9
Procedure: SSF experiments were also performed with sugarcane bagass slurries. […] Reducing agents, dithionite and sulphite, respectively, were added 10 min prior to inoculum in concentrations of studied 7.5 and 10 mM. The ethanol concentration was measured after 13 and 45 hours according to the protocol described in Example 1.

[5] = test system: yeast Saccharomyces cerevisiae; conditions: for Ethanol concentration / Productivity / Yield: 15.0 mM; for viability at 10000 µM: Saccharomyces cerevisiae, read-out: Viable cells; for Fermentability (glucose consumption): acid spruce hydrolysate
Procedure: A spruce slurry was prepared an subjected to acidic hydrolysis as described in Example 6. […] Sodium dithionite was added to different samples to concentrations of 2.5, 5, 7.5, 10, 12.5, and 15 mM. The treatments were performed at 21° C. for 5 min with stirring. In addition, treatments with 0.1% (7.9 mM) and 1% (79.3 mM) sodium sulphite were performed. […] Furthermore, a sugar solution (glucose 18 g/L, mannose 14 g/L) was prepared to evaluate if the effect of the sodium dithionite treatment was due to an effect on the hydrolysate or the ethanolic fermentation with yeast. Half of the sugar solution was treated with 10 mM sodium dithionite, whereas the rest was left untreated as a reference. The volumes of treated and untreated samples were equalized with water and the pH was adjusted to pH 5.5 prior to the fermentation. Fermentation was performed with the yeast Saccharomyces cerevisiae as described in the previous Examples.
Spruce hydrolysate samples were prepared as in Example 6.
Two samples were treated with DTT to 2 and 20 mM, respectively, two samples were treated with ascorbic acid to 10 and 100 mM, respectively and two samples were treated with glutathione to 1 and 10 mM, respectively.
The treatment time was 3 h for all samples and fermentation was performed as described in the previous Examples.

[6] = acid spruce hydrolysate, 2.5-15 mM, Table 4
[7] = Fermentation of sugar solution treated with sodium dithionite; format: cell-based; conditions: Saccharomyces cerevisiae, Saccharomyces cerevisiae yeast cells in fermentation, read-out: Viable cells
[8] = bagass hydrolysate, 6 h fermentation, 10 mM
[9] = spruce hydrolysate, 14 h fermentation, 10 mM

O=S([O-])S(=O)[O-].[Na+].[Na+] [Dithionite, Sodium dithionite]
Balanced ethanol yield [1, 8]: 0.28 g EtOH/Σglucose & mannose prior to detoxification
Productivity [1, 8]: 3.9 g EtOH × L^−1 × h^−1
Yield [1, 8]: 0.34 g EtOH/g consumed glucose & mannose
Ethanol production ([1]; bagass hydrolysate, 6 h fermentation, FIG. 4): high ethanol production
Glucose consumption rates and amounts of ethanol produced ([1]; spruce hydrolysate, 5 mM): substantial improvement
Glucose consumption rates and amounts of ethanol produced ([1]; spruce hydrolysate, 10 mM): comparable to those of the reference fermentation
Balanced ethanol yield [1, 9]: 0.34 g EtOH/Σglucose & mannose prior to detoxification
Productivity [1, 9]: 2.5 g EtOH × L^−1 × h^−1
Yield [1, 9]: 0.37 g EtOH/g consumed glucose & mannose
viability at 10000 µM ([2]; 2.25 h): 76.7%
viability at 10000 µM ([2]; 7 h): 75 ± 8%
Glucose consumption rate ([2]; sugar solution with coniferyl aldehyde (2.5 mM), sodium dithionite 10 mM, FIG. 12): much higher
Ethanol concentration ([3]; 2.5 mM): about 10 g/L
Ethanol concentration ([3]; 5 mM): 35 to 40 g/L
Ethanol concentration ([3]; 7.5 mM): highest ethanol production
Time after which ethanol formation leveled off ([3]; 10 mM, FIG. 5): about 45 h
Improvement of ethanol production, dithionite versus sulphite ([3]; 10 mM, FIG. 8): better improvement than the addition of sulphite
Ethanol concentration ([3]; 10 mM): highest ethanol production
Ethanol concentration ([3]; 15 mM): highest ethanol production
Ethanol concentration ([3]; 20 mM): 35 to 40 g/L
Ethanol concentration ([3]; 30 mM): about 30 g/L
Ethanol production compared to the untreated hydrolysate ([3]; 7.5 and 10 mM, FIG. 5): higher ethanol production
Fermentability (ethanol production after 13 and 45 hours) [4]: improved fermentability
Ethanol concentration ([5]; 2.75 h): 5.07 g/L
Productivity ([5]; 2.75 h): 1.84 g EtOH × L^−1 × h^−1
Yield ([5]; 2.75 h): 0.37 g EtOH/g consumed glucose and mannose
Ethanol concentration ([5]; 4.25 h): 9.81 g/L
Productivity ([5]; 4.25 h): 2.31 g EtOH × L^−1 × h^−1
Yield ([5]; 4.25 h): 0.44 g EtOH/g consumed glucose and mannose
Ethanol concentration ([5]; 6.25 h): 14.59 g/L
Productivity ([5]; 6.25 h): 2.33 g EtOH × L^−1 × h^−1
Yield ([5]; 6.25 h): 0.47 g EtOH/g consumed glucose and mannose
Ethanol concentration ([5]; 9.25 h): 15.47 g/L
Productivity ([5]; 9.25 h): 1.67 g EtOH × L^−1 × h^−1
Yield ([5]; 9.25 h): 0.49 g EtOH/g consumed glucose and mannose
viability at 10000 µM ([5]; 2.25 h): 91%
viability at 10000 µM ([5]; 7 h): 96.7 ± 2.5%
Fermentability (glucose consumption) ([5]; 15 mM, FIG. 11): fermented about as well as the NH4OH treated sample and the plain sugar solution
Fermentability (glucose consumption) ([5]; 2.5-15 mM, FIG. 10): improved fermentability
Degradation of monosaccharide [6]: No significant degradation
viability at 2.25 h, 10 mM ([7]; pH 5.5, fermentation time 2.25 h): 80.8 ± 4.5%
viability at 7 h, 10 mM ([7]; pH 5.5, fermentation time 7 h): 84.3 ± 2.9%

— patent publication US8815499B2, “In situ detoxification of fermentation inhibitors with reducing agents” (priority 2009, dated 2014)
